pEC50: −log10 of the molar value. Where two headings read alike, the source gives them in different places.
Assays:
SARS-CoV (Urbani strain) = type: cell-based; conditions: Vero-76 cells
MERS-CoV (Jordan strain) = type: cell-based; conditions: Vero-76 cells
[1] = test system: SARS-CoV-2 (WA1/2020 strain); assay: Virus yield reduction (VYR) assay, SARS-CoV-2 in Vero76 cells; type: cell-based; conditions: for EC90: Vero76 cells
[2] = Phase 1 single ascending dose study, intravenous administration in healthy human subjects; type: in vivo; conditions: for AUC0-inf / AUC24 / CL / Cmax / Vz / t1/2 / AUCt: geometric mean, preliminary; for AUCt: t 120 h to 480 h
Procedure: The agent used in this Example was compound A (the compound of formula I, where A is NH2 and B is H as the HCL salt). A phase 1 double-blind, placebo-controlled, single ascending dose study was conducted to evaluate the safety, tolerability, and pharmacokinetics of Compound A administered by intravenous (IV) administration in healthy human subjects. Four cohorts were administered the study drug at the following doses: 5 mg/kg, 10 mg/kg, 15 mg/kg, and 20 mg/kg. Eight subjects received a single IV dose per cohort (6 subjects received Compound A; 2 subjects received matching placebo). Subject dosing was staggered as a safety precaution.
The plasma PK concentration-time profile of Compound A at all doses was characterized by an initial rapid distribution and clearance phase, and a slow terminal clearance phase. […] The inter-subject variability in exposure (Cmax and AUC) was low, as reflected in the geometric mean coefficients of variance (CVs) on these parameters. No subjects met any stopping criteria for any cohort.

NOAEL exposure in NHP = type: in vivo; conditions: 30 mg/kg dose
[3] = human, in vivo
[4] = human, in vivo; remark: listed apart in the source
[5] = human, in vivo; remark: listed apart in the source
[6] = test system: SARS-CoV-2 (WA1/2020 isolate); assay: SARS-CoV-2 hamster model of infection; conditions: for lung tissue histopathology (total histology score) vs vehicle control: Days +3 and +7; for lung viral burden lower than vehicle control: 100 mg/kg BID i.p., Day 3 post-infection
SARS-CoV-2 = assay: Randomized placebo-controlled dose-ranging study, IV infusion in hospitalized adults with COVID-19 (Part 1)
[7] = EC50 adjusted with CLE, read-out: Adjusted EC50
[8] = NR uptake, MOI 0.001, 3 days, read-out: EC50

SMILES: Nc1ncnc2c([C@@H]3N[C@H](CO)[C@@H](O)[C@H]3O)c[nH]c12 [Compound A]
- pEC50 (SARS-CoV (Urbani strain); [7]): 5.34
- pEC50 (SARS-CoV (Urbani strain); [8]): 4.24
- pEC50 (MERS-CoV (Jordan strain); [7]): 5.67
- pEC50 (MERS-CoV (Jordan strain); [8]): 4.57
- EC90 ([1]; EC90 adjusted with CLE, read-out: Adjusted EC90): 0.87 µM
- SI ([1]; SI=CC50/EC90, Vero76 cells): >27
- EC90 ([1]; VYR at day 3, MOI 0.002, compound added 24 hours prior to infection, read-out: EC90): 10.9 µM
- AUC0-inf ([2]; single IV dose 5 mg/kg): 21200 ng·h/mL
- AUC24 ([2]; single IV dose 5 mg/kg): 10950 ng·h/mL
- CL ([2]; single IV dose 5 mg/kg): 17.1 L/h
- Cmax ([2]; single IV dose 5 mg/kg): 5540 ng/mL
- Vz ([2]; single IV dose 5 mg/kg): 2725 L
- t1/2 ([2]; single IV dose 5 mg/kg): 111 h
- AUCt ([2]; single IV dose 5 mg/kg): 17100 ng·h/mL
- AUC0-inf ([2]; single IV dose 10 mg/kg): 37100 ng·h/mL
- AUC24 ([2]; single IV dose 10 mg/kg): 21070 ng·h/mL
- CL ([2]; single IV dose 10 mg/kg): 20.7 L/h
- Cmax ([2]; single IV dose 10 mg/kg): 10300 ng/mL
- Vz ([2]; single IV dose 10 mg/kg): 3049 L
- t1/2 ([2]; single IV dose 10 mg/kg): 114.5 h
- AUCt ([2]; single IV dose 10 mg/kg): 32400 ng·h/mL
- AUC0-inf ([2]; single IV dose 15 mg/kg): 65900 ng·h/mL
- AUC24 ([2]; single IV dose 15 mg/kg): 34370 ng·h/mL
- CL ([2]; single IV dose 15 mg/kg): 16.7 L/h
- Cmax ([2]; single IV dose 15 mg/kg): 17700 ng/mL
- Vz ([2]; single IV dose 15 mg/kg): 4138 L
- t1/2 ([2]; single IV dose 15 mg/kg): 182.5 h
- AUCt ([2]; single IV dose 15 mg/kg): 59900 ng·h/mL
- AUC0-inf ([2]; single IV dose 20 mg/kg): 81200 ng·h/mL
- AUC24 ([2]; single IV dose 20 mg/kg): 44770 ng·h/mL
- CL ([2]; single IV dose 20 mg/kg): 17.9 L/h
- Cmax ([2]; single IV dose 20 mg/kg): 20500 ng/mL
- Vz ([2]; single IV dose 20 mg/kg): 4010 L
- t1/2 ([2]; single IV dose 20 mg/kg): 133.5 h
- AUCt ([2]; single IV dose 20 mg/kg): 73400 ng·h/mL
- safety and tolerability ([2]; single IV dose 5-20 mg/kg, healthy subjects): generally safe and well tolerated
- dose proportionality of Cmax, AUCt and AUCinf ([2]; single IV doses 5-20 mg/kg): increased in dose-proportional manner
- NOAEL exposure (NOAEL exposure in NHP): approximately 52,500 ng*h/mL
- CC50 (Vero76 cells): > 296 µM
- dose proportionality of exposure [3]: dose-proportional and linear with increasing dose
- safety and tolerability [3]: generally safe and well tolerated
- time after administration at which plasma concentrations were maximal [3]: 1 to 2 h
- increase in exposure (AUC) with repeat dosing ([3]; im): approximately 1.5 fold
- t1/2 ([3]; im, 2.5 mg/kg): 104 (15.9) h
- t1/2 ([3]; im, 5 mg/kg): 85.7 (17.3) h
- AUC0-24 ([3]; im, 10 mg/kg): 20300 ng·h/mL
- AUCtau ([3]; im, 10 mg/kg): 34500 ng·h/mL
- Cmax ([3]; im, 10 mg/kg): 7980 ng/mL
- Tmax ([3]; im, 10 mg/kg): 0.375 h
- t1/2 ([3]; im, 10 mg/kg): 113 (26.4) h
- safety and tolerability [4]: generally safe and well tolerated
- safety and tolerability [5]: generally safe and well tolerated
- lung tissue histopathology (total histology score) vs vehicle control ([6]; Group 1 (first dose −24 hours)): reduced/no tissue histopathology as compared with vehicle control
- animals that achieved PFU<10 (lower limit of quantification) in OP swabs ([6]; Group 1, 100 mg/kg BID i.p., first dose −24 hr): 62.5%
- weight loss ([6]; Group 1, 100 mg/kg BID i.p., first dose −24 hr relative to infection): < 5%
- lung tissue histopathology (total histology score) vs vehicle control ([6]; Group 2 (first dose +1.5 hours)): reductions relative to vehicle control
- lung viral burden lower than vehicle control ([6]; Group 3 (first dose +24 hours)): ~0.66 log
- clinical scores, adverse impact of dosing ([6]; Groups 1-3, 100 mg/kg BID i.p.): no adverse impact
- lung viral burden lower than vehicle control ([6]; Groups 1 and 2 (first dose −24 and +1.5 hours)): 1.4-1.6 log
- safety and tolerability (SARS-CoV-2; Cohorts 1-3, IV loading/maintenance regimens for 7 days, hospitalized COVID-19 patients): safe and generally well tolerated
- clinical efficacy compared to placebo (SARS-CoV-2; Cohorts 1-3, Part 1 not sized for efficacy): no clinical efficacy benefit
- decline in viral RNA levels in the respiratory tract (SARS-CoV-2; Cohorts 1-3, apparent dose-dependent manner): more rapid decline in viral RNA levels in the respiratory tract
- time to a negative viral RNA result in LRT samples compared to placebo (SARS-CoV-2; Cohorts 1-3, shortest in Cohorts 2 and 3): shorter time to a negative viral RNA result

From patent US12472197B2 (priority 2020, dated 2025)
